Laboratory results from patent US20240368664A1, “LIVE YEAST BIOSENSORS AND METHODS OF USE THEREOF” (priority 2021, published 2024).
Read-outs that look alike come from different tables or passages of the source. Residues, ends and D or L forms follow the SMILES beside them. No end group written: not given here.

Legend:
[1] = tested on: fungal cognate receptors; assay type: cell-based
[2] = tested on: AfuSte2; assay type: cell-based, A. fumigatus
[3] = tested on: AfuSte2 (first member), ScSte2 (second member); assay type: cell-based, A. fumigatus
[4] = tested on: AfuSte2; assay type: cell-based, A. fumigatus; remark: listed apart in the source
[5] = tested on: AfuSte2; assay type: cell-based, Aspergillus fumigatus; details: nasal swab solution; 30° C. and room temperature
Method: (left) and room temperature (right).
To determine whether the yeast biosensor can detect the targeted pathogen analyte in the presence of the nasal swab solution. The yeast biosensor's ability to detect its cognate fungal biomarker in the presence of the nasal swab solution was tested. […] This experiment involved a biosensor containing an Ste2 homolog from Aspergillus fumigatus (AfuSte2) that produces lycopene in response to its cognate pheromone peptide (AfuPep). […] Experiments were carried out at yeast standard growth conditions, which include at 30° C.; experiments also needed to be conducted at at-home-like temperatures to ensure that the biosensor is viable and active in these settings. When incubated at room temperature, the yeast still produced an observable difference in lycopene compared to the water negative control (FIG. 24).

[6] = tested on: AfuSte2
[7] = tested on: CaSte2; details: CaSte2 (yTC384), no protease; Hill function best-fit ± standard error
[8] = tested on: CaSte2 with protease CaBar1; details: for Hill Slope: CaSte2 + CaBar1 (yBB02), Hill function best-fit ± standard error; for cleavage by CaBar1 protease: judged from CaSte2 activation with/without CaBar1; for EC50: biosensor with protease CaBar1 under intermediate pRPL18B promoter, 10-h incubation
[9] = tested on: CaSte2 with protease CaBar1
[10] = biological target: C. albicans pheromone peptide (CaPep) (Candida albicans); test: cell-based or functional assay
[11] = tested on: CaSte2 with protease CaBar1; details: read-out: "EC50" of the first response phase; biphasic dose-response, phase treated as separate Hill fit
[12] = tested on: CaSte2; test: CaSte2 biosensor with lycopene readout, without CaBar1 (yTC646); details: -CaBar1 strain; 50-300 nM peptide; 1-h preincubation, 7-h incubation
[13] = biological target: T1, Schizosaccharomyces pombe pheromone GPCR SpSte2 (Schizosaccharomyces pombe) (UniProt Q00619); test: cell-based or functional assay
T1 sequence: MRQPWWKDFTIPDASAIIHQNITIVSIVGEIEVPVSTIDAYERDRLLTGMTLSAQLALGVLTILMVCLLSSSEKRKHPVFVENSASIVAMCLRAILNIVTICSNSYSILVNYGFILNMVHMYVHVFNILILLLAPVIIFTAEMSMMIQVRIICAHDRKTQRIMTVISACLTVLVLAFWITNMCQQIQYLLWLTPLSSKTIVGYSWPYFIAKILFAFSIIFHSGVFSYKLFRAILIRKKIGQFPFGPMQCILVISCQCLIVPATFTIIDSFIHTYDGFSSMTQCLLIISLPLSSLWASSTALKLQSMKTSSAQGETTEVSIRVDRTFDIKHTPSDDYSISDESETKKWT

[14] = tested on: live yeast biosensor
[15] = biological target: S. cerevisiae pheromone peptide (ScPep) (Saccharomyces cerevisiae); test: cell-based or functional assay
[16] = biological target: S. japonicus pheromone peptide (SjPep) (Schizosaccharomyces japonicus); test: cell-based or functional assay
[17] = tested on: SjSte2 with peptide proteases; assay type: cell-based, Schizosaccharomyces japonicus; details: read-out: apparent EC50
[18] = biological target: T2, S. cerevisiae GPCR (Saccharomyces cerevisiae, UniProt D6VTK4); test: Aspergillus spp peptide/GPCR orthogonality matrix, S. cerevisiae GPCR; assay type: cell-based; details: 40 μM peptide
T2 sequence (D6VTK4 whole entry, looked up): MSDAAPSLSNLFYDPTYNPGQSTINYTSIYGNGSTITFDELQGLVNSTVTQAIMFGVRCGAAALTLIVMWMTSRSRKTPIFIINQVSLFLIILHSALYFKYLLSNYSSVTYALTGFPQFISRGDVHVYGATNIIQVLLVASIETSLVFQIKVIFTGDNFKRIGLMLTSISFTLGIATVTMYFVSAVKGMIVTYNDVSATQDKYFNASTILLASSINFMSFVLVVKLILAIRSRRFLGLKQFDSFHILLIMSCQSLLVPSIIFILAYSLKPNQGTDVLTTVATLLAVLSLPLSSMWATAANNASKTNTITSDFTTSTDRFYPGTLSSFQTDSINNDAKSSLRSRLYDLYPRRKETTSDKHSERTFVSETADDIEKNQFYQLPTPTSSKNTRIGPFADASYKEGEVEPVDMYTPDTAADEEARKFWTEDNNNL
Method: FIGS. 6A-6B show Aspergillus spp peptide cross-reactivity with Aspergillus spp GPCRs. […] The test concentration was set at 40 μM of a given peptide ligand.
Next, 13 GPCRs of all genome-mined Aspergillus species, including A. fumigatus from Example 1 and S. cerevisiae, along with inducible fluorescent readout were integrated into optimized parent strain. S. cerevisiae was included to test cross-reactivity with S. cerevisiae GPCR and peptide, since this peptide/GPCR pair will be used for building multi-cellular amplification communities. Then, each strain was activated with all Aspergillus peptides and S. cerevisiae peptide (FIG. 6A). Most of the Aspergillus GPCRs were responsive to at least one peptide, except A. terreus, A. flavus/A. oryzae (same GPCR sequence), A. niger and A. nidulans which were not responsive to any tested peptide. […] The majority of peptides have the same sequence (A. fischeri, A. fumigatus, A. lentulus, A. novofumigatus, A. udagawae and A. viridinutans) and the other active peptides differ only in the third amino acid position from N-terminus (A. clavatus, A. flavus and A. oryzae).

[19] = biological target: S. octosporus pheromone peptide (SoPep) (Schizosaccharomyces octosporus); test: cell-based or functional assay
[20] = fine-tuned optimized strain (yTC453/pDR01)
[21] = natural signaling pathway (yMJ194/pDR01)

Question: For `CC(C)C[C@H](NC(=O)[C@H](Cc1c[nH]cn1)NC(=O)[C@H](CS)NC(=O)[C@@H](N)Cc1c[nH]c2ccccc12)C(=O)N1CCC[C@H]1C(=O)NCC(=O)N[C@@H](CCC(N)=O)C(=O)NCC(=O)N[C@@H](CS)C(=O)O` [AfuPep] (H-WCHLPGQGC-OH; N-terminus and C-terminus assumed), which “activation of fungal cognate receptors by AfuPep” value [1] is on record?
Answer: nor did AfuPep activate fungal cognate receptors

Question: And the “fluorescence intensity relative to background fluorescence” value [2]?
Answer: two-fold

Question: And the “fold lower AfuPep concentration at which receiver strain responds vs sender strain” value [3]?
Answer: 8 fold

Question: What about the “LoD / color detection limit in liquid culture” value [4] of the same molecule?
Answer: 50 nM

Question: What about the “limit of detection (LoD) in liquid culture” value [4] of the same molecule?
Answer: ~30 nM

Question: And the “time to faint visible color in culture pellets” value [4]?
Answer: one hour

Question: And the “time to obvious color change in liquid culture” value [4]?
Answer: two hours

Question: What about the “lycopene production in the presence of human biospecimens” value [5] of the same molecule?
Answer: produces lycopene only when AfuPep is present

Question: What about the “fold change of fluorescence readout compared to background” value ([6]; AfuSte2 on plasmid, inducible mCherry in optimized strain, FIG. 1B) of the same molecule?
Answer: around 4,000 fold

Question: And the EC50 [6, 20]?
Answer: ~40 nM

Question: What about the activation fold change [6, 20] of the same molecule?
Answer: 2,900 fold

Question: What about the basal expression [6, 20] of the same molecule?
Answer: practically zero

Question: And the maximal activation [6, 20]?
Answer: ~2,900 A.U.

Question: What about the EC50 [6, 21] of the same molecule?
Answer: ~10 nM

Question: And the activation fold change [6, 21]?
Answer: 19 fold

Question: And the maximal activation [6, 21]?
Answer: ~450 A.U.

Question: And the basal expression ([6]; older strain with natural signaling pathway (yMJ194/pDR01))?
Answer: ~20 A.U.

Question: And the EC50 ([6]; read-out: EC50 value (concentration of peptide required for half-maximal activation), AfuSte2 on plasmid, inducible mCherry in optimized strain, FIG. 1B)?
Answer: ~100 nM

Question: Which results are given for `CC(C)C[C@H](NC(=O)[C@H](CCCNC(=N)N)NC(=O)[C@H](Cc1ccccc1)NC(=O)CN)C(=O)N[C@H](C(=O)N[C@@H](CC(N)=O)C(=O)N[C@@H](Cc1ccccc1)C(=O)NCC(=O)N[C@@H](Cc1ccc(O)cc1)C(=O)N[C@@H](Cc1ccccc1)C(=O)N[C@@H](CCC(=O)O)C(=O)N1CCC[C@H]1C(=O)N[C@@H](C)C(=O)O)[C@@H](C)O` [CaPep13A]?
Answer: Hill Slope [7]: 0.81 ± 0.04; Hill Slope [8]: 0.94 ± 0.06; cleavage by CaBar1 protease [8]: cleavable; cleavage by CaBar1 protease ([8]; listed as GFRLTNFGYFEPA): specifically cleaved; EC50 ([9]; +CaBar1 strain, lycopene, 1-h preincubation before adding peptides, 8-h incubation): 1000 nM; effect of CaBar1 on color onset, lycopene readout ([9]; liquid culture, same peptide concentrations, 1-h preincubation, 8-h incubation (FIG. 37)): diminishes color onset

Question: Which shift of apparent EC50 on the cognate GPCR with the protease co-expressed (order of magnitude) [10] does the source give for “Candida albicans Bar1 aspartyl protease (CaBar1) (enzyme)” here?
Answer: 1

Question: What does the source list for GARLTNFGYFEPA [CaPep2A13A]?
Answer: Hill Slope [7]: 1.2 ± 0.1; Hill Slope [8]: 0.86 ± 0.10; EC50 [8]: ~70 nM; cleavage by CaBar1 protease [8]: non-cleavable; EC50 [11]: ~0.3 nM

Question: Which “Hill Slope” value [7] does the source give for GARLTNFGYFEPG [CaPep2A] here?
Answer: 1.4 ± 0.3

Question: What about the “Hill Slope” value [8] of the same molecule?
Answer: 1.6 ± 0.3

Question: What about the EC50 [8] of the same molecule?
Answer: ~40 nM

Question: What about the “cleavage by CaBar1 protease” value [8] of the same molecule?
Answer: does not cleave

Question: What about the EC50 [11] of the same molecule?
Answer: ~1 nM

Question: And the “color development in yeast pellets” value [12]?
Answer: robust orange color development

Question: Which apparent EC50, ymTurquoise2, strain co-expressing SpSxa2 [13] does the source give for S. pombe pheromone peptide (SpPep) here?
Answer: 100 µM

Question: Which “concentration that does not impact the vitality and function of the live yeast biosensor” value [14] does the source give for SDS here?
Answer: up to 0.01%

Question: “Saccharomyces cerevisiae Bar1 aspartyl protease (ScBar1) (from UniProt P12630 25-587) (enzyme)” was tested. Which shift of apparent EC50 on the cognate GPCR with the protease co-expressed (order of magnitude) [15] did it give?
Answer: 1

Question: For “Schizosaccharomyces japonicus serine carboxypeptidase Sxa2 (SjSxa2) (enzyme)”, which shift of apparent EC50 on the cognate GPCR with the protease co-expressed (order of magnitude) [16] is on record?
Answer: 1

Question: With Tween20 as the molecule, how does the “concentration that does not impact the vitality and function of the live yeast biosensor” value [14] read?
Answer: up to 0.05%

Question: VSDRVKQMLSHWWNERNPDTANL [SjPep] was tested. Which EC50 [17] did it give?
Answer: > 100 µM

Question: Which “cross-reaction with S. cerevisiae GPCR” value [18] does the source give for “WCWLPGQGC [A. terreus peptide, A. terreus pheromone peptide]” here?
Answer: cross-reacted

B1: Schizosaccharomyces octosporus serine carboxypeptidase Sxa2 (SoSxa2) (enzyme)
chain: MNLAVHVLLLSFLLYTVHSFPAYPPYPIYPRSSLNSSNASSVPIPQPSYNSSSKAMNPDLVTSLPEYSGSLPELYSGYLSAENFKQIFYTFAPAITPTDKFIVWLQGGPGCAGTLGFFSENGPIILDPNHQTPQDNPNSWTRFANMMWIDQPFGTGYSQGSPLASTVSIATSDFIQTLKSFYAKFPEMKEKELYLVGESYGSVWGAYFAQALRSDPELHAIPFGGLGIISGLLSDYETQNTITASMWLDHVNKMGLYYTNESAEVSTFFAAKNQQCGYAEVLERMQFPAEQTPIPKPRVNLTNSFSKKKRQADSDSDSGNIKEAFQMITDCDTYTLTDFLLYLKNHCMITYDITLDCSFNSNNDPLTTYLNRKDVQKQLHAIHVESALTSSKGIFGNGCNYDVYGDIVKNGAPSILEEAIPELVQNYKVSFLAGALDFQLLWTGSLLALQNTTWNGWQGFQEIPDLNSPFGFTLDERNLAFTLSNKVGHMAPSKDPSMVIDWLQKTLLG
Question: Which shift of apparent EC50 on the cognate GPCR with the protease co-expressed (orders of magnitude) [19] does the source give for B1 here?
Answer: 1.5
